Reference: patent publication US5834461A, “Tricyclic benzazepine vasopressin antagonists” (American Cyanamid Company, priority 1997, dated 1998)

What was measured:
[1] = target: vasopressin V1 receptor (rat liver plasma membranes) (Rattus norvegicus, UniProt P30560); assay: Binding Assay to Rat Hepatic V1 Receptors; settings: rat hepatic V1
Description: Rat liver plasma membranes expressing the vasopressin V1 receptor subtypes are isolated by sucrose density gradient according to the method described by Lesko et al., (1973). These membranes are quickly suspended in 50.0 mM Tris.HCl buffer, pH 7.4, containing 0.2% bovine serum albumin (BSA) and 0.1 mM phenylmethylsulfonylfluoride (PMSF) and kept frozen at -70° C. until used in subsequent binding experiments. For binding experiments, the following is added to the wells of a ninety-six well format microtiter plate: 100 μl of 100.0 mM Tris.HCl buffer containing 10.0 mM MgCl2, 0.2% heat inactivated BSA and a mixture of protease inhibitors: leupeptin, 1.0 mg %; aprotinin, 1.0 mg %; 1,10-phenanthroline,2.0 mg %; trypsin inhibitor, 10.0 mg % and 0.1 mM PMSF, 20.0 μl of [phenylalanyl-3,4,5,-^3 H] vasopressin (S.A. 45.1 Ci/mmole) at 0.8 nM, and the reaction initiated by the addition of 80 μl of tissue membranes containing 20 μg of tissue protein. The plates are kept undisturbed on the bench top at room temperature for 120 min. to reach equilibrium. Non-specific samples are assayed in the presence of 0.1 μM of the unlabeled antagonist phenylalanylvasopressin, added in 20.0 μl volume.
For test compounds, these are solubilized in 50% dimethylsulfoxide (DMSO) and added in 20.0 μl volume to a final incubation volume of 200 μl. Upon completion of binding, the content of each well is filtered off, using a Brandel® cell Harvester (Gaithersburg, Md.). The radioactivity trapped on the filter disk by the ligand-receptor complex is assessed by liquid scintillation counting in a Packard LS Counter, with an efficiency of 65% for tritium.

[2] = target: T1, rat kidney medullary V2 receptors (Rattus norvegicus, UniProt Q00788); assay: Binding Assay to Rat Kidney Medullary V2 Receptors; settings: rat kidney medullary V2
T1 construct: Medullary tissues from rat kidneys are dissected out; from tissue; host or cells: rat kidney medulla membranes
Description: Medullary tissues from rat kidneys are dissected out, cut into small pieces and soaked in a […] sodium chloride solution containing 1.0 mM EDTA with many changes of the liquid phase, until the solution is clear of blood. The tissue is homogenized in a 0.25M sucrose solution containing 1.0 mM EDTA and 0.1 mM PMSF using a Potter-Elvehjem homogenizer with a teflon pestle. The homogenate is filtered through several layers (4 layers) of cheese cloth. The filtrate is rehomogenized using a dounce homogenizer, with a tight fitting pestle. The final homogenate is centrifuged at 1500×g for 15 min. The nuclear pellet is discarded and the supernatant fluid recentrifuged at 40,000×g for 30 min. The resulting pellet formed contains a dark inner part with the exterior, slightly pink. The pink outer part is suspended in a small amount of 50.0 mM Tris.HCl buffer, pH 7.4. The protein content is determined by the Lowry's method (Lowry et al., J. Biol. Chem., 1953). The membrane suspension is stored at -70° C., in 50.0 mM Tris.HCl, containing 0.2% inactivated BSA and 0.1 mM PMSF in aliquots of 1.0 ml containing 10.0 mg protein per ml of suspension until use in subsequent binding experiments.
For binding experiments, the following is added in μl volume to wells of a 96 well format of a microtiter plate: 100.0 μl of 100.0 mM Tris.HCl buffer containing 0.2% heat inactivated BSA, 10.0 mM MgCl2 and a mixture of protease inhibitors: leupeptin, 1.0 mg %; aprotinin, 1.0 mg %; 1,10-phenanthroline, 2.0 mg %; trypsin inhibitor, 10.0 mg % and 0.1 mM PMSF, 20.0 μl of [^3 H] Arginine^8, vasopressin (S.A. 75.0 Ci/mmole) at 0.8 nM and the reaction initiated by the addition of 80.0 μl of tissue membranes (200.0 μg tissue protein). The plates are left undisturbed on the bench top for 120 min to reach equilibrium. Non-specific binding is assessed in the presence of 1.0 μM of unlabeled ligand, added in 20 μl volume. For test compounds, these are solubilized in 50% dimethylsulfoxide (DMSO) and added in 20.0 μl volume to a final incubation volume of 200 μl. Upon completion of binding, the content of each well is filtered off, using a Brandel® cell Harvester (Gaithersburg, Md.). The radioactivity trapped on the filter disk by the ligand-receptor complex is assessed by liquid scintillation counting in a Packard LS Counter, with an efficiency of 65% for tritium.

vasopressin V2 = assay: Vasopressin V2 Antagonist Activity in Conscious Hydrated Rats (diuretic effect); type: in vivo, normal Sprague-Dawley rats; settings: AVP 0.4 μg/kg i.p.
Description: Conscious hydrated rats are treated with compounds under study from 0.1 to 100 mg/kg orally or vehicle. Two to four rats are used for each compound. One hour later, arginine vasopressin (AVP, antidiuretic hormore, ADH) dissolved in peanut oil is administered at 0.4 μg/kg intraperitoneally. Two rats in each test would not receive arginine vasopressin but only the vehicle (peanut oil) to serve as water-loading control. Twenty minutes later each rat is given 30 mL/kg of deionized water orally by gavage and is placed individually in a metabolic cage equipped with a funnel and a graduated glass cylinder to collect urine for four hours. Urine volume is measured and osmolality analyzed by use of a Fiske One-Ten osmometer (Fiske Assoc., Norwood, Mass., USA). Urinary sodium, potassium, and chloride are analyzed by use of ion-specific electrodes in a Beckman E3 (Electrolyte 3) Analyzer. In the following results, […] and decreased osmolality relative to AVP-control indicates activity.

vasopressin V1 = assay: Vasopressin V1 Antagonist Activity in Conscious Rats (vasopressin vasopressor response); type: in vivo, rat (spontaneously hypertensive rats); set-up: Average Change: unit not given here
Description: Conscious rats are restrained in a supine position with elastic tape. The area at the base of the tail is locally anesthetized by subcutaneous infiltration with 2% procaine (0.2 ml). Using aseptic technique the ventral caudal tail artery is isolated and a cannula made of PE 10 and 20 (heat-fused) tubing is passed into the lower abdominal aorta. The cannula is secured, heparinized (1000 i.u./cc), sealed and the wound closed with one or two stitches of Dexon 4-0. The caudal vein is also cannulated in the same manner for intravenous drug administration. The duration of the surgery is approximately 5 minutes. Additional local anesthesia (2% procaine or lidocaine) is provided as needed.
The animals are placed in plastic restraining cages in an upright position. The cannula is attached to a Statham P23Db pressure transducer and pulsatile blood pressure is recorded. […] The vasopressin injections are repeated 30, 60, 90, 120, 180, 240 and 300 min. later. Percentage of antagonism by the compound is calculated using the pre-drug vasopressin vasopressor response as 100%.

[3] = 10 mg/kg i.v., VAS 0.01 i.u./kg, 30 min
[4] = 10 mg/kg i.v., VAS 0.02 i.u./kg, 30 min
[5] = 20 mg/kg i.v., VAS 0.01 i.u./kg, 60 min
[6] = 20 mg/kg i.v., VAS 0.01 i.u./kg, 90 min
[7] = 20 mg/kg i.v., VAS 0.01 i.u./kg, 120 min
[8] = 20 mg/kg i.v., VAS 0.01 i.u./kg, 180 min
[9] = 20 mg/kg i.v., VAS 0.01 i.u./kg, 240 min
[10] = 20 mg/kg i.v., VAS 0.01 i.u./kg, 300 min
[11] = 20 mg/kg i.v., VAS 0.02 i.u./kg, 60 min
[12] = 20 mg/kg i.v., VAS 0.02 i.u./kg, 90 min
[13] = 20 mg/kg i.v., VAS 0.02 i.u./kg, 120 min
[14] = 20 mg/kg i.v., VAS 0.02 i.u./kg, 180 min
[15] = 20 mg/kg i.v., VAS 0.02 i.u./kg, 240 min
[16] = 20 mg/kg i.v., VAS 0.02 i.u./kg, 300 min

T1 sequence (Q00788 whole entry): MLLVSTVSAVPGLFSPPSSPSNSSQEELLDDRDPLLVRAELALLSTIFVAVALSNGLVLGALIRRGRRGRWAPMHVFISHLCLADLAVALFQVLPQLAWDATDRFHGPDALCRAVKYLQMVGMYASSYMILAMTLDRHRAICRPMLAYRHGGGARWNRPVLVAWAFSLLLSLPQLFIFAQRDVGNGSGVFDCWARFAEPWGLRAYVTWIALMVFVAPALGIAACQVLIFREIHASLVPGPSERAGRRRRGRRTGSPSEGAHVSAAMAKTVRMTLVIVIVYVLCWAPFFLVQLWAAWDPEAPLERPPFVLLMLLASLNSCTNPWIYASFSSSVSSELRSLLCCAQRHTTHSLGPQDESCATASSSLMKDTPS
vasopressin V1 receptor (rat liver plasma membranes), sequence (P30560 whole entry): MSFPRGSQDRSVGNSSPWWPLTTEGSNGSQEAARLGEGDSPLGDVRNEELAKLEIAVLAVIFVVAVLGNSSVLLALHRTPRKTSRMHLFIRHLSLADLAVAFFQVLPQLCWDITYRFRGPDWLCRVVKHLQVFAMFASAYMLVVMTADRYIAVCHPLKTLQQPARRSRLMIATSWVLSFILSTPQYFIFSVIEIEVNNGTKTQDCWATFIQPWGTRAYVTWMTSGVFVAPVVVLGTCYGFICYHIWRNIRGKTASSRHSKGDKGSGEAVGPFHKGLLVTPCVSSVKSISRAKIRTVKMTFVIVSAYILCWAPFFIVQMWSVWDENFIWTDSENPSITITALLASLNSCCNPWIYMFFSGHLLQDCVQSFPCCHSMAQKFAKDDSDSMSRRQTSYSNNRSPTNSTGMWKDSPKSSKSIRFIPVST

Row | Structure (SMILES) | IC50 [1] | IC50 [2] | Osmolality (vasopressin V2; 10 mg/kg orally) | Urine Volume (vasopressin V2; 10 mg/kg orally) | Average Change (vasopressin V1; [3]) | Inhibition (vasopressin V1; [3]) | Average Change (vasopressin V1; [4]) | Inhibition (vasopressin V1; [4]) | Average Change (vasopressin V1; [5]) | Inhibition (vasopressin V1; [5]) | Average Change (vasopressin V1; [6]) | Inhibition (vasopressin V1; [6]) | Average Change (vasopressin V1; [7]) | Inhibition (vasopressin V1; [7]) | Average Change (vasopressin V1; [8]) | Inhibition (vasopressin V1; [8]) | Average Change (vasopressin V1; [9]) | Inhibition (vasopressin V1; [9]) | Average Change (vasopressin V1; [10]) | Inhibition (vasopressin V1; [10]) | also measured
1 | O=C(Nc1ccc(C(=O)N2Cc3ccccc3Cc3ccccc32)cc1)c1ccc(Cl)cc1Cl [Example 10, N-[4-[(6,11-Dihydro-5H-dibenz[b,e]azepin-5-yl)carbonyl]phenyl]2,4-dichlorobenzamide] | 170 nM | 64 nM | 1023 mOsm/kg | 7.1 ml/4 hrs. | 37.5 | -25% | 64.5 | -26% | 14.5 | 52% | 16 | 47% | 13.5 | 55% | 25.5 | 15% | 22.5 | 25% | 24.5 | 18% | Average Change (vasopressin V1; [11]): 22.5; Inhibition (vasopressin V1; [11]): 56%; Average Change (vasopressin V1; [12]): 23; Inhibition (vasopressin V1; [12]): 55%; Average Change (vasopressin V1; [13]): 22; Inhibition (vasopressin V1; [13]): 57%; Average Change (vasopressin V1; [14]): 29.5; Inhibition (vasopressin V1; [14]): 42%; Average Change (vasopressin V1; [15]): 34.5; Inhibition (vasopressin V1; [15]): 32%; Average Change (vasopressin V1; [16]): 34; Inhibition (vasopressin V1; [16]): 33%
2 | CSc1ccccc1C(=O)Nc1ccc(C(=O)N2Cc3ccccc3Cc3ccccc32)cc1 [Example 61, N-[4-[(6.11-Dihydro-5H-dibenz[b.e]azepin-5-yl)-carbonyl]phenyl]-2-(methylthio)benzamide] | 52 nM | 68 nM | 975 mOsm/kg | 9.3 ml/4 hrs. | 21 | 26% | 32.5 | 37% | 13 | 54% | 8 | 72% | 12 | 58% | 15.5 | 46% | 12 | 58% | 15.5 | 46% | Average Change (vasopressin V1; [11]): 14.5; Inhibition (vasopressin V1; [11]): 72%; Average Change (vasopressin V1; [12]): 16.5; Inhibition (vasopressin V1; [12]): 68%; Average Change (vasopressin V1; [13]): 20; Inhibition (vasopressin V1; [13]): 61%; Average Change (vasopressin V1; [14]): 17.5; Inhibition (vasopressin V1; [14]): 66%; Average Change (vasopressin V1; [15]): 23; Inhibition (vasopressin V1; [15]): 55%; Average Change (vasopressin V1; [16]): 24; Inhibition (vasopressin V1; [16]): 53%
3 | O=C(Nc1ccc(C(=O)N2Cc3ccccc3Cc3cc(Cl)ccc32)cc1)c1ccc(Cl)cc1Cl [Example 137, N-[4-[(2-Chloro-6,11-dihydro-5H-dibenz[b,e]azepin-5-yl)carbonyl]phenyl]2,4-dichlorobenzamide] | 76 nM | 64 nM |  |  |  |  |  |  |  |  |  |  |  |  |  |  |  |  |  |  | Osmolality (vasopressin V2; 30 mg/kg orally): 358 mOsm/kg; Urine Volume (vasopressin V2; 30 mg/kg orally): 15.8 ml/4 hrs.; MAX % Inhibition (vasopressin V1; 10 mg/kg i.v.): 52%; Time of max % inhibition (vasopressin V1; 10 mg/kg i.v.): 30 min
4 | Cc1ccccc1C(=O)Nc1ccc(C(=O)N2Cc3ccccc3Sc3ccccc32)cc1 [Example 62, N-[4-[(Dibenz[b,f][1,4]thiazepin-10(11H)yl)carbonyl]-phenyl]-2-methylbenzamide] | 404 nM | 858 nM | 1034 mOsm/kg | 7.7 ml/4 hrs. | 57 | -44% | 61.5 | -2% | 13 | 67% | 23 | 42% | 23.5 | 41% | 24.5 | 38% | 30 | 24% | 25 | 37% | Average Change (vasopressin V1; [11]): 29.5; Inhibition (vasopressin V1; [11]): 51%; Average Change (vasopressin V1; [12]): 54; Inhibition (vasopressin V1; [12]): 11%; Average Change (vasopressin V1; [13]): 50; Inhibition (vasopressin V1; [13]): 17%; Average Change (vasopressin V1; [14]): 15; Inhibition (vasopressin V1; [14]): 75%; Average Change (vasopressin V1; [15]): 40.5; Inhibition (vasopressin V1; [15]): 33%; Average Change (vasopressin V1; [16]): 38; Inhibition (vasopressin V1; [16]): 37%
